Test results taken from patent US9029373B2, “Kinase inhibitors” (Chiesi Farmaceutici S.p.A., priority 2011, dated 2015).
pIC50: −log10 of the molar value. Where a name gives a salt, the structure may show the parent alone.

Tests used:
p38alpha = biological target: T1, p38alpha (Homo sapiens, UniProt Q16539); assay: P38alpha enzyme inhibition assay (Alphascreen kinase activity assay); assay type: biochemical; conditions: 100 pM p38alpha, 250 μM ATP, 2 hours pre-incubation at 25° C., ATF-2 fusion protein substrate; read-out: p38α inhibition (IC50 values)
T1 construct: purchased Invitrogen PV3304
T1 sequence (Q16539 whole entry, the tested form may be a part): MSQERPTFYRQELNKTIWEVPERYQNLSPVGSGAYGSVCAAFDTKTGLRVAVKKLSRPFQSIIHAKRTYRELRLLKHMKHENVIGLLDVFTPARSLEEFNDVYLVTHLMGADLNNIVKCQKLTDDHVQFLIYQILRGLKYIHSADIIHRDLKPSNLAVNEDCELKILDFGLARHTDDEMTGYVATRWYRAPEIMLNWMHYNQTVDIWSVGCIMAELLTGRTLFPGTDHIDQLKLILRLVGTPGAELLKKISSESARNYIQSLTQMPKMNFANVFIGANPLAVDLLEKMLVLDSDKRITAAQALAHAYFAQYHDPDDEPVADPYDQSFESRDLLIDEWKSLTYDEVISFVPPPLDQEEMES
Experimental: P38alpha Enzyme Inhibition Assay.
The inhibitory activity of compounds was determined using an Alphascreen® (Perkin Elmer) based kinase activity assay. Kinase reactions consisted of 25 mM HEPES pH 7.5, 10 mM MgCl2, 100 μM Na3VO4, 2 mM DTT, 0.05 mg/ml Tween 20, 100 pM p38alpha (Invitrogen, PV3304), 1% DMSO and 0.3 μg/ml ATF-2 fusion protein (New England Biolabs, 9224). Compounds were incubated under these conditions for 2 hours, at 25° C., prior to the initiation of the kinase activity by the addition of the 250 μM ATP. Reaction volumes were 20 uL. After 1 hr at 25° C. reactions were stopped by the adding 10 uL of 25 mM HEPES pH 7.5 containing 62.5 mM EDTA, 0.05% Triton X-100, 10% BSA and 0.83 ng/uL anti-phospho-ATF2 antibody (Abeam, ab28812). Detection was performed by measuring luminescence following the addition of Alphascreen Donor beads (Perkin Elmer 6765300) and Protein A Alphascreen Acceptor beads (Perkin Elmer 6760137), both at a final concentration of 20 ug/ml. IC50 values were determined from concentration-response curves.

[1] = system: LPS-stimulated PBMC TNFα release; assay: LPS-stimulated PBMC TNFα release assay; assay type: cell-based; conditions: human PBMCs, LPS 10 ng/ml, 18 h, TNFα by ELISA, at least three separate experiments, read-out: p38α inhibition (IC50 values), inhibition of TNFα release
Experimental: LPS-Stimulated PBMC TNFα Release Assay.
Peripheral Blood Mononuclear Cells (PBMCs) were isolated from healthy human volunteer blood using a standard density gradient centrifugation technique. Citrated blood was placed onto Histopaque™ and centrifuged. The PBMCs were removed from the density gradient interface and washed in phosphate buffered saline (PBS). The PBMCs were suspended in RPMI 1640 medium (without serum), dispensed into a 96-well plate and incubated at 37° C. for 3 h in a humidified incubator. After incubation, the medium was replaced (with medium containing 1% foetal bovine serum), and the plate incubated at 37° C., for 1 h, in the presence of test compound or the appropriate vehicle. LPS (10 ng/ml), or an appropriate vehicle control, was then added to the cells, and the plate returned to the incubator for 18 h. Cell-free supernatants were removed and assayed for TNFα levels using an ELISA kit from R&D Systems.
A dose response curve to each test compound was performed and the effect of compound in each experiment was expressed as a percentage inhibition of the control TNFα release. Dose response curves were plotted and compound potency (IC50) was determined. Compounds were tested in at least three separate experiments.

| SMILES | pIC50 (p38alpha) | pIC50 [1] |
| --- | --- | --- |
| CC(C)c1nnc2ccc(O[C@H]3CC[C@H](NC(=O)Nc4cnn(C(C)(C)C)c4)c4ccccc43)cn12 [Example 9, 1-(1-tert-Butyl-1H-pyrazol-4-yl)-3-[(1S,4S)-4-(3-isopropyl-[1,2,4]triazolo[4,3-a]pyridin-6-yloxy)-1,2,3,4-tetrahydro-naphthalen-1-yl]-urea] | > 8.00 | > 8.00 |
| CC(C)c1nnc2ccc(O[C@@H]3CC[C@H](NC(=O)Nc4cc(C(C)(C)C)nn4-c4cccc(OCCN5CCC(O)CC5)c4)c4ccccc43)cn12 [Example 22, 1-(5-tert-Butyl-2-{3-[2-(4-hydroxy-piperidin-1-yl)-ethoxy]-phenyl}-2H-pyrazol-3-yl)-3-[(1S,4R)-4-(3-isopropyl-[1,2,4]triazolo[4,3-a]pyridin-6-yloxy)-1,2,3,4-tetrahydro-naphthalen-1-yl]-urea formate salt] | > 8.00 | 7.00 to 8.00 |
| CC(C)c1nnc2ccc(O[C@H]3CC[C@H](NC(=O)Nc4nnc(C(C)(C)C)o4)c4ccccc43)cn12 [Example 5, 1-(5-tert-Butyl-[1,3,4]oxadiazol-2-yl)-3-[(1S,4S)-4-(3-isopropyl-[1,2,4]triazolo[4,3-a]pyridin-6-yloxy)-1,2,3,4-tetrahydro-naphthalen-1-yl]-urea] | > 8.00 | 7.00 to 8.00 |
| CC(C)(C)c1cc(NC(=O)N[C@H]2CC[C@@H](Oc3ccc4nnc(-c5c(Cl)cccc5Cl)n4c3)c3ccccc32)n(CCN2CCOCC2)n1 [Example 27, 1-[5-tert-Butyl-2-(2-morpholin-4-yl-ethyl)-2H-pyrazol-3-yl]-3-{(1S,4R)-4-[3-(2,6-dichloro-phenyl)-[1,2,4]triazolo[4,3-a]pyridin-6-yloxy]-1,2,3,4-tetrahydro-naphthalen-1-yl}-urea formate salt] | > 8.00 | > 8.00 |
| CC(C)(C)c1cc(NC(=O)N[C@H]2CC[C@@H](Oc3ccc4nnc(-c5c(Cl)cccc5Cl)n4c3)c3ccccc32)n(CCN2CCCCC2)n1 [Example 29, 1-[5-tert-Butyl-2-(2-piperidin-1-yl-ethyl)-2H-pyrazol-3-yl]-3-{(1S,4R)-4-[3-(2,6-dichloro-phenyl)-[1,2,4]triazolo[4,3-a]pyridin-6-yloxy]-1,2,3,4-tetrahydro-naphthalen-1-yl}-urea formate salt] | > 8.00 | > 8.00 |
| CN1CCN(CCn2nc(C(C)(C)C)cc2NC(=O)N[C@H]2CC[C@@H](Oc3ccc4nnc(-c5c(Cl)cccc5Cl)n4c3)c3ccccc32)CC1 [Example 30, 1-{5-tert-Butyl-2-[2-(4-methyl-piperazin-1-yl)-ethyl]-2H-pyrazol-3-yl}-3-{(1S,4R)-4-[3-(2,6-dichloro-phenyl)-[1,2,4]triazolo[4,3-a]pyridin-6-yloxy]-1,2,3,4-tetrahydro-naphthalen-1-yl}-urea formate salt] | > 8.00 | > 8.00 |
| CC(C)(C)c1cc(NC(=O)N[C@H]2CC[C@@H](Oc3ccc4nnc(-c5c(Cl)cccc5Cl)n4c3)c3ccccc32)n(CCO)n1 [Example 26, 1-[5-tert-Butyl-2-(2-hydroxy-ethyl)-2H-pyrazol-3-yl]-3-{(1S,4R)-4-[3-(2,6-dichloro-phenyl)-[1,2,4]triazolo[4,3-a]pyridin-6-yloxy]-1,2,3,4-tetrahydro-naphthalen-1-yl}-urea] | > 8.00 | > 8.00 |
| CC(C)c1nnc2ccc(O[C@@H]3CC[C@H](NC(=O)Nc4cc(C(C)(C)C)nn4-c4cccc(CN5CCC(F)(F)CC5)c4)c4ccccc43)cn12 [Example 12, 1-{5-tert-Butyl-2-[3-(4,4-difluoro-piperidin-1-ylmethyl)-phenyl]-2H-pyrazol-3-yl}-3-[(1S,4R)-4-(3-isopropyl-[1,2,4]triazolo[4,3-a]pyridin-6-yloxy)-1,2,3,4-tetrahydro-naphthalen-1-yl]-urea] | > 8.00 | 7.00 to 8.00 |
| CC(C)c1nnc2ccc(O[C@H]3CC[C@H](NC(=O)Nc4ccc(Cl)c(C(F)(F)F)c4)c4ccccc43)cn12 [Example 7, 1-(4-Chloro-3-trifluoromethyl-phenyl)-3-[(1S,4S)-4-(3-isopropyl-[1,2,4]triazolo[4,3-a]pyridin-6-yloxy)-1,2,3,4-tetrahydro-naphthalen-1-yl]-urea] | > 8.00 | > 8.00 |
| CC(C)(C)c1cc(NC(=O)N[C@H]2CC[C@@H](Oc3ccc4nnc(C5CCCCC5)n4c3)c3ccccc32)n(CCN2CCOCC2)n1 [Example 34, 1-[5-tert-Butyl-2-(2-morpholin-4-yl-ethyl)-2H-pyrazol-3-yl]-3-[(1S,4R)-4-(3-cyclohexyl-[1,2,4]triazolo[4,3-a]pyridin-6-yloxy)-1,2,3,4-tetrahydro-naphthalen-1-yl]-urea partial formate salt] | > 8.00 | > 8.00 |

Further lines, with some results ahead:

| pIC50 (p38alpha) | SMILES | pIC50 [1] |
| --- | --- | --- |
| > 8.00 | CC(C)c1nnc2ccc(O[C@@H]3CC[C@H](NC(=O)Nc4cc(C(C)(C)C)nn4C)c4cc(F)ccc43)cn12 [Example 19, 1-(5-tert-Butyl-2-methyl-2H-pyrazol-3-yl)-3-[(1S,4R)-7-fluoro-4-(3-isopropyl-[1,2,4]triazolo[4,3-a]pyridin-6-yloxy)-1,2,3,4-tetrahydro-naphthalen-1-yl]-urea] | 7.00 to 8.00 |
| > 8.00 | CC(C)c1nnc2ccc(O[C@@H]3CC[C@H](NC(=O)Nc4cc(C(C)(C)C)nn4CCN4CCOCC4)c4ccccc43)cn12 [Example 18, 1-[5-tert-Butyl-2-(2-morpholin-4-yl-ethyl)-2H-pyrazol-3-yl]-3-[(1S,4R)-4-(3-isopropyl[1,2,4]triazolo[4,3-a]pyridin-6-yloxy)-1,2,3,4-tetrahydro-naphthalen-1-yl]-urea] | 7.00 to 8.00 |
| > 8.00 | CC(C)c1nnc2ccc(O[C@@H]3CC[C@H](NC(=O)Nc4cc(C(C)(C)C)nn4C)c4ccccc43)cn12 [Example 2, 1-(5-tert-Butyl-2-methyl-2H-pyrazol-3-yl)-3-[(1S,4R)-4-(3-isopropyl-[1,2,4]triazolo[4,3-a]pyridin-6-yloxy)-1,2,3,4-tetrahydro-naphthalen-1-yl]-urea] | > 8.00 |
| > 8.00 | CC(C)c1nnc2ccc(O[C@@H]3CC[C@H](NC(=O)Nc4cc(C(C)(C)C)nn4-c4cccc(OCCO)c4)c4ccccc43)cn12 [Example 4, 1-{5-tert-Butyl-2-[3-(2-hydroxy-ethoxy)-phenyl]-2H-pyrazol-3-yl}-3-[(1S,4R)-4-(3-isopropyl-[1,2,4]triazolo[4,3-a]pyridin-6-yloxy)-1,2,3,4-tetrahydro-naphthalen-1-yl]-urea] | > 8.00 |
| > 8.00 | CC(C)c1nnc2ccc(O[C@H]3CC[C@H](NC(=O)Nc4cc(C(C)(C)C)nn4-c4ccc(CO)cc4)c4ccccc43)cn12 [Example 15, 1-[5-tert-Butyl-2-(4-hydroxymethyl-phenyl)-2H-pyrazol-3-yl]-3-[(1S,4S)-4-(3-isopropyl-[1,2,4]triazolo[4,3-a]pyridin-6-yloxy)-1,2,3,4-tetrahydro-naphthalen-1-yl]-urea] | > 8.00 |
| > 8.00 | CC(C)c1nnc2ccc(O[C@@H]3CC[C@H](NC(=O)Nc4cc(C(C)(C)C)nn4-c4cccc(SCCO)c4)c4ccccc43)cn12 [Example 3, 1-{5-tert-Butyl-2-[3-(2-hydroxyethylsulfanyl)-phenyl]-2H-pyrazol-3-yl}-3-[(1S,4R)-4-(3-isopropyl-[1,2,4]triazolo[4,3-a]pyridin-6-yloxy)-1,2,3,4-tetrahydro-naphthalen-1-yl]-urea] | > 8.00 |
| > 8.00 | CC(C)c1nnc2ccc(O[C@H]3CC[C@H](NC(=O)Nc4nc(C(C)(C)C)no4)c4ccccc43)cn12 [Example 8, 1-(3-tert-Butyl-[1,2,4]oxadiazol-5-yl)-3-[(1S,4S)-4-(3-isopropyl-[1,2,4]triazolo[4,3-a]pyridin-6-yloxy)-1,2,3,4-tetrahydro-naphthalen-1-yl]-urea] | > 8.00 |
